# Test results as given in patent US12532889B2, “Herbicidal compositions comprising glufosinate” (BASF SE, priority 2023, dated 2026).
# Tested on: ELEIN (Eleusine indica)
# Experiment: Post-emergence application in field trials (Example A)
# Assay type: in vivo
# Settings: A-1 25, B-6 252 g ai/ha, water 400 l/ha
# [1] = Table 5.1, ELEIN height 5-20 cm, 21 DAT
# [2] = Table 5.6, ELEIN growth stage 14-15, height 9-14 cm, 28 DAT
Structure (SMILES),% herbicidal activity [1] [%],% herbicidal activity [2] [%]
"CCOC(=O)COc1ccccc1Oc1nc(-n2c(=O)cc(C(F)(F)F)n(C)c2=O)c(F)cc1Cl [A-1, ethyl 2-[2-[[3-chloro-5-fluoro-6-[3-methyl-2,6-dioxo-4-(trifluoromethyl)pyrimidin-1-yl]-2-pyridyl]oxy]phenoxy]acetate]",57,91
"CP(=O)(O)CC[C@H](N)C(=O)O.N [B-6, glufosinate-P-ammonium]",0,40
